Test results as given in PubChem BioAssay AID248 (DTP/NCI, 2004).
Values joined by “and” are separate entries in the source; they are usually repeats but may differ in a detail not shown here. Equal values may be shown once. Toxic doses and inconclusive results are not listed.

System: L1210 leukemia ip in BDF1 mice, survival T/C
Assay: NCI In Vivo Anticancer Drug Screen. Data for tumor model L1210 Leukemia (intraperitoneal) in B6D2F1 (BDF1) mice
Conditions: endpoint: mean survival time, higher = longer survival
In short: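 Mice bearing the transplanted tumor received compound or vehicle. Survival of the treated group was divided by that of the vehicle-treated control group to give the ratio.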

SMILES: CSc1ncnc2c1ncn2C1OC(CO)C(O)C1O (stereo unspecified)
- T/C (dose: 0.5 mg/kg/injection, schedule: Q#A X Z (ip), vehicle: saline): 120 % of control
- T/C (dose: 0.82 mg/kg/injection, schedule: Q07DX003 (ip), vehicle: saline): 107 % of control
- T/C (dose: 1.0 mg/kg/injection, schedule: Q01DX Z (ip), vehicle: saline): 113 % of control
- T/C (dose: 1.25 mg/kg/injection, schedule: Q06HX068 (ip), vehicle: saline): 123 % of control
- T/C (dose: 2.0 mg/kg/injection, schedule: Q01DX010 (ip), vehicle: saline): 109 % of control and 112 % of control
- T/C (dose: 2.0 mg/kg/injection, schedule: Q01DX Z (ip), vehicle: saline): 123 % of control
- T/C (dose: 3.25 mg/kg/injection, schedule: Q07DX003 (ip), vehicle: saline): 115 % of control
- T/C (dose: 4.0 mg/kg/injection, schedule: Q01DX006 (iv), vehicle: saline): 109 % of control
- T/C (dose: 4.0 mg/kg/injection, schedule: Q01DX010 (ip), vehicle: saline): 117 % of control
- T/C (dose: 4.0 mg/kg/injection, schedule: Q01DX Z (im), vehicle: saline): 117 % of control
- T/C (dose: 4.0 mg/kg/injection, schedule: Q01DX Z (sc), vehicle: saline): 102 % of control
- T/C (dose: 5.0 mg/kg/injection, schedule: Q01DX010 (ip), vehicle: saline): 113 % of control and 122 % of control
- T/C (dose: 5.0 mg/kg/injection, schedule: Q01DX017 (ip), vehicle: saline): 105 % of control
- T/C (dose: 5.0 mg/kg/injection, schedule: Q#A X034 (ip), vehicle: saline): 118 % of control
- T/C (dose: 6.5 mg/kg/injection, schedule: Q07DX003 (ip), vehicle: saline): 115 % of control and 121 % of control
- T/C (dose: 6.65 mg/kg/injection, schedule: Q#A X Z (ip), vehicle: saline): 151 % of control
- T/C (dose: 8.0 mg/kg/injection, schedule: Q01DX006 (iv), vehicle: saline): 105 % of control
- T/C (dose: 8.0 mg/kg/injection, schedule: Q01DX010 (ip), vehicle: saline): 118 % of control and 124 % of control
- T/C (dose: 8.0 mg/kg/injection, schedule: Q01DX Z (im), vehicle: saline): 115 % of control
- T/C (dose: 8.0 mg/kg/injection, schedule: Q01DX Z (sc), vehicle: saline): 113 % of control
- T/C (dose: 10.0 mg/kg/injection, schedule: Q12HX010 (ip), vehicle: saline): 119 % of control
- T/C (dose: 10.0 mg/kg/injection, schedule: Q## X032 (ip), vehicle: saline): 119 % of control
- T/C (dose: 12.5 mg/kg/injection, schedule: Q01DX010 (ip), vehicle: saline): 150 % of control
- T/C (dose: 13.0 mg/kg/injection, schedule: Q## X004 (ip), vehicle: saline): 114 % of control
- T/C (dose: 15.0 mg/kg/injection, schedule: Q01DX010 (ip), vehicle: saline): 152 % of control
- T/C (dose: 15.0 mg/kg/injection, schedule: Q01DX Z (oral), vehicle: saline): 119 % of control
- T/C (dose: 16.0 mg/kg/injection, schedule: Q01DX006 (iv), vehicle: saline): 112 % of control
- T/C (dose: 16.0 mg/kg/injection, schedule: Q01DX Z (sc), vehicle: saline): 115 % of control
- T/C (dose: 18.0 mg/kg/injection, schedule: Q01DX001 (ip), vehicle: saline): 104 % of control and 106 % of control
- T/C (dose: 20.0 mg/kg/injection, schedule: Q01DX015 (ip), vehicle: saline): 153 % of control
- T/C (dose: 20.0 mg/kg/injection, schedule: Q12HX006 (ip), vehicle: saline): 110 % of control
- T/C (dose: 20.0 mg/kg/injection, schedule: Q12HX010 (ip), vehicle: saline): 120 % of control
- T/C (dose: 20.0 mg/kg/injection, schedule: Q## X004 (ip), vehicle: saline): 121 % of control
- T/C (dose: 20.0 mg/kg/injection, schedule: Q#A X034 (ip), vehicle: saline): 103 % of control
- T/C (dose: 21.0 mg/kg/injection, schedule: Q## X015 (ip), vehicle: saline): 152 % of control
- T/C (dose: 22.0 mg/kg/injection, schedule: Q## X032 (ip), vehicle: saline): 124 % of control
- T/C (dose: 23.0 mg/kg/injection, schedule: Q03DX006 (ip), vehicle: saline): 113 % of control
- T/C (dose: 25.0 mg/kg/injection, schedule: Q01DX001 (ip), vehicle: saline): 122 % of control and 124 % of control
- T/C (dose: 25.0 mg/kg/injection, schedule: Q01DX005 (ip), vehicle: saline): 150 % of control
- T/C (dose: 26.0 mg/kg/injection, schedule: Q01DX001 (ip), vehicle: saline): 103 % of control
- T/C (dose: 27.0 mg/kg/injection, schedule: Q01DX001 (ip), vehicle: saline): 110 % of control and 120 % of control
- T/C (dose: 30.0 mg/kg/injection, schedule: Q01DX003 (ip), vehicle: saline): 151 % of control
- T/C (dose: 30.0 mg/kg/injection, schedule: Q01DX015 (ip), vehicle: saline): 153 % of control
- T/C (dose: 30.0 mg/kg/injection, schedule: Q## X004 (ip), vehicle: saline): 121 % of control
- T/C (dose: 31.0 mg/kg/injection, schedule: Q## X015 (ip), vehicle: saline): 152 % of control
- T/C (dose: 32.0 mg/kg/injection, schedule: Q01DX006 (iv), vehicle: saline): 115 % of control and 117 % of control
- T/C (dose: 32.0 mg/kg/injection, schedule: Q01DX Z (im), vehicle: saline): 153 % of control
- T/C (dose: 32.0 mg/kg/injection, schedule: Q01DX Z (ip), vehicle: saline): 102 % of control
- T/C (dose: 32.0 mg/kg/injection, schedule: Q01DX Z (sc), vehicle: saline): 151 % of control
- T/C (dose: 32.0 mg/kg/injection, schedule: Q## X015 (ip), vehicle: saline): 103 % of control and 115 % of control
- T/C (dose: 32.0 mg/kg/injection, schedule: Q## X032 (ip), vehicle: saline): 122 % of control
- T/C (dose: 38.0 mg/kg/injection, schedule: Q01DX015 (ip), vehicle: saline): 100 % of control
- T/C (dose: 39.5 mg/kg/injection, schedule: Q01DX015 (ip), vehicle: saline): 123 % of control
- T/C (dose: 39.5 mg/kg/injection, schedule: Q## X015 (ip), vehicle: saline): 123 % of control
- T/C (dose: 40.0 mg/kg/injection, schedule: Q01DX001 (ip), vehicle: saline): 107 % of control and 110 % of control and 112 % of control
- T/C (dose: 40.0 mg/kg/injection, schedule: Q01DX017 (ip), vehicle: saline): 108 % of control
- T/C (dose: 40.0 mg/kg/injection, schedule: Q12HX006 (ip), vehicle: saline): 120 % of control
- T/C (dose: 45.0 mg/kg/injection, schedule: Q01DX015 (ip), vehicle: saline): 102 % of control and 110 % of control
- T/C (dose: 45.0 mg/kg/injection, schedule: Q03DX006 (ip), vehicle: saline): 120 % of control
- T/C (dose: 47.0 mg/kg/injection, schedule: Q## X015 (ip), vehicle: saline): 98 % of control and 103 % of control
- T/C (dose: 50.0 mg/kg/injection, schedule: Q01DX001 (ip), vehicle: saline): 113 % of control and 122 % of control
- T/C (dose: 50.0 mg/kg/injection, schedule: Q01DX009 (ip), vehicle: saline): 102 % of control
- T/C (dose: 54.0 mg/kg/injection, schedule: Q01DX001 (ip), vehicle: saline): 120 % of control
- T/C (dose: 60.0 mg/kg/injection, schedule: Q01DX001 (ip), vehicle: saline): 115 % of control
- T/C (dose: 60.0 mg/kg/injection, schedule: Q01DX Z (oral), vehicle: saline): 119 % of control
- T/C (dose: 61.0 mg/kg/injection, schedule: Q01DX001 (ip), vehicle: saline): 116 % of control
- T/C (dose: 64.0 mg/kg/injection, schedule: Q01DX Z (im), vehicle: saline): 109 % of control
- T/C (dose: 64.0 mg/kg/injection, schedule: Q01DX Z (sc), vehicle: saline): 102 % of control
- T/C (dose: 80.0 mg/kg/injection, schedule: Q12HX010 (ip), vehicle: saline): 115 % of control
- T/C (dose: 90.0 mg/kg/injection, schedule: Q01DX001 (ip), vehicle: saline): 121 % of control
- T/C (dose: 90.0 mg/kg/injection, schedule: Q03DX006 (ip), vehicle: saline): 119 % of control
- T/C (dose: 91.0 mg/kg/injection, schedule: Q01DX001 (ip), vehicle: saline): 113 % of control
- T/C (dose: 100.0 mg/kg/injection, schedule: Q01DX001 (ip), vehicle: saline): 111 % of control
- T/C (dose: 100.0 mg/kg/injection, schedule: Q01DX003 (ip), vehicle: saline): 117 % of control
- T/C (dose: 100.0 mg/kg/injection, schedule: Q02DX008 (ip), vehicle: saline): 95 % of control
- T/C (dose: 105.0 mg/kg/injection, schedule: Q07DX003 (ip), vehicle: saline): 151 % of control and 152 % of control
- T/C (dose: 121.0 mg/kg/injection, schedule: Q01DX001 (ip), vehicle: saline): 119 % of control
- T/C (dose: 138.0 mg/kg/injection, schedule: Q01DX001 (ip), vehicle: saline): 152 % of control
- T/C (dose: 160.0 mg/kg/injection, schedule: Q12HX006 (ip), vehicle: saline): 113 % of control
- T/C (dose: 180.0 mg/kg/injection, schedule: Q03DX006 (ip), vehicle: saline): 105 % of control
- T/C (dose: 200.0 mg/kg/injection, schedule: Q01DX001 (ip), vehicle: saline): 103 % of control
- T/C (dose: 256.0 mg/kg/injection, schedule: Q01DX006 (iv), vehicle: saline): 94 % of control
- T/C (dose: 400.0 mg/kg/injection, schedule: Q01DX001 (ip), vehicle: saline): 100 % of control

SMILES: CC12CCC(=O)CC1CCC1C2CCC2(C)C(C(=O)O)CCC12 (stereo unspecified)
- T/C (dose: 25.0 mg/kg/injection, schedule: Q04DX002 (ip), vehicle: saline with Tween-80): 99 % of control
- T/C (dose: 50.0 mg/kg/injection, schedule: Q04DX002 (ip), vehicle: saline with Tween-80): 96 % of control
- T/C (dose: 100.0 mg/kg/injection, schedule: Q04DX002 (ip), vehicle: saline with Tween-80): 108 % of control
